Results on 1 molecule are retold here after patent US20250051762A1, “PLATFORM USING DNA-ENCODED SMALL MOLECULE LIBRARIES AND RNA SELECTION TO DESIGN SMALL MOLECULES THAT TARGET RNA” (University of Florida Research Foundation, Incorporated, priority 2021, published 2025).

One test has as its target pri-miR-27a. Description: Competitive MST binding assay with unlabeled miR-27a precursor. More on the design: species or system human. The settings on record: 100 nM compound, Cy5-labeled Drosha site model. The method, then:
To measure the affinity of 9 for the 5′GAG/3′CCC loop in the context of pri-miR-27a, a competitive binding assay was used with a constant concentration of compound (100 nM) and the Cy5-labeled model of pri-miR-27a's Drosha site, and varying concentrations of unlabeled miR-27a precursor as reported by miRBase. (35) That is, the miR-27a precursor competes with the Cy5-labeled model of pri-miR-27a's Drosha site for binding 9. […] Thus, the compounds identified by using DEL-2DCS can bind avidly to biologically relevant RNA targets identified by Inforna.
For competitive binding assays, both WT and mutant pri-miR-27a RNAs were transcribed as previously described (see Table S6 for sequences). (11) The RNA was purified by gel electrophoresis and folded in 1× Binding Buffer at final concentration of 750 nM by heating at 60° C. for 5 min and then slowly cooling to room temperature. […] The resulting data were analyzed by SigmaPlot and fitted by Equation 2 to yield the competitive dissociation constant (Kd competitive).
where F is the concentration of fluorescence-labeled RNA; unbound and bound refers to the thermophoresis signal at completely unbound and bound state of RNA, respectively; c is the concentration of the compound; f (c) is the thermophoresis signal at compound concentration of c; Kd is the dissociation constant. […]

Another test deals with PDCD4. Description: Western blot of PDCD4 in MDA-MB-231 cells. Type of test: cell-based, human. The settings on record: relative to β-actin, 48 h. The method, then: Western Blotting: MDA-MB-231 cells were grown in 6-well plates to ˜80% confluency in complete growth medium and then incubated with 9 at the indicated concentrations for 48 h. Total protein was extracted using M-PER Mammalian Protein Extraction Reagent (Pierce Biotechnology) using the manufacturer's protocol and quantified using a Micro BCA Protein Assay Kit (Pierce Biotechnology). Approximately 50 μg of total protein was separated on a 10% SDS-polyacrylamide gel, and then transferred to a PVDF membrane. The membrane was washed with 1× Tris-buffered saline (TBS) and then blocked in 1×TBST (1×TBS containing 0.1% (v/v) Tween-20) containing 5% (w/v) milk for 1 h at room temperature. […] The membrane was again washed with 1×TBST, and protein expression was quantified using SuperSignal West Pico Chemiluminescent Substrate (Pierce Biotechnology) per the manufacturer's protocol.
To quantify b-actin expression, used for normalization, the membrane was stripped using 1× Stripping Buffer (200 mM glycine, pH 2.2 and 0.1% SDS) followed by washing in 1×TBST. […] The fold change of the target protein expression (PP4C or PDCD4) was calculated by normalizing its band intensity to b-actin band intensity using ImageJ.

In test [1] the test system is fully paired RNA (loop mutated to a base pair). Description: Binding affinity by MST, Cy5-labeled fully paired RNA. As for the experimental part: Binding affinity measurements: Binding affinities were measured by microscale thermophoresis (MST), performed on a Monolith NT.115 system (NanoTemper Technologies) with Cy5-labeled RNAs. These RNAs include: the 5′GAG/3′CCC SEQ ID NO: 16 loop at pri-miR-27a's Drosha site (Sequence:/5′-Cy5/rCrUrGrArGrGrUrGrArArArCrArUrCrCrCrArG SEQ ID NO: 17; Dharmacon), a related internal loop not selected by 9. 5′CAG/3′GCC SEQ ID NO: 17 loop (Sequence:/5′-Cy5/rCrUrCrArGrGrUrGrArArArCrArUrCrCrGrArG SEQ ID NO: 16; Dharmacon), and an RNA in which the loop is mutated to a base pair (Sequence:/5-Cy5/rCrUrGrArGrGrUrGrArArArCrArUrCrUrCrArG SEQ ID NO: 16; Dharmacon).
Briefly, Cy5-labeled RNA (10 nM) was prepared in 1× Binding Buffer and folded by heating at 60° C. for 5 min and then slowly cooling to room temperature. After cooling, Tween-20 was added to a final concentration of 0.1% (v/v). Compound solutions were prepared separately in 20 μL of 1× Binding Buffer at a final concentration of 5 μM (1% (v/v) DMSO), followed by 1:1 serial dilutions in 1× Binding Buffer. RNA and compound solutions were then mixed 1:1 by volume to a total of 20 μL.
Samples were incubated for 20 min at room temperature and then loaded into premium capillaries (NanoTemper Tech, Cat #MO-K025). The following parameters were used for MST measurements: 5-20% LED power (adjusted to keep fluorescence intensity between 2000 and 8000), 80% MST power, Laser-On time=30 s, Laser-Off time=25 s. The resulting data were analyzed by calculating the change in thermophoresis as a function of compound concentration and fitted by Equation 1, a one site binding model, in NanoTemper Tech's MST analysis software to yield the dissociation constant (Kd):
Where F is the concentration of fluorescently labeled RNA; unbound and bound refer to the thermophoresis signal at completely unbound and bound state of RNA, respectively; c is the concentration of the compound; f (c) is the thermophoresis signal at compound concentration of c; and Kd is the dissociation constant.

`C#CCN(CC(N)=O)C(=O)C[C@H](Cc1c[nH]c2ccccc12)NC(=O)[C@@H]1C[C@H](NC(=O)Cn2c(=O)[nH]c3ccccc3c2=O)CN1` [Compound 9] returned a Kd at pri-miR-27a of 40 ± 30 nM. In addition, the PDCD4 expression entry in the test with PDCD4 was “upregulation”. Besides, the saturable binding result in test [1] is “Saturable binding was not observed”.
